“Also recorded” adds a separate entry of the source.
Columns and labels:
[1] = test system: Male wild type C57bl6 mice fed cuprizone; assay: Visual evoked potentials after cuprizone diet (in vivo); parameters: species or system mouse; conditions: 0.1 mg/kg or 0.3 mg/kg subcutaneous twice a day, remyelination phase, compared to vehicle
Protocol: Male wild type C57bl6 mice were fed regular chow (n=6) or 0.3% (w/w)cuprizone (n=21) for 6 weeks to […]. Afterwards, cuprizone was removed and recovery was allowed. Two days before ceasing the cuprizone diet, until the end of the experiment, animals received twice a day subcutaneous injections consisting of 0.1% DMSO in 0.5% methylcellulose solution with either vehicle (no cuprizone and vehicle group; n=6 and n=8 respectively), 0.1 mg/kg RICE (n=7) or 0.3 mg/kg RICE (n=6) (FIG. 3). […] After either three or four days after ceasing the cuprizone diet, visual evoked potential were measured to evaluate optic tract and nerve signaling (groups equally divided over testing days). Epidermal VEP was recorded in response to flash stimulation (3 trains of 20 stimuli, 10 us duration, 1 Hz frequency) from both eyes. […] A one-way ANOVA with Kruskall Wallis multiple comparison test was conducted to evaluate statistical significances (*p≤0.05; **p<0.01, ****p<0.001).

[2] = test system: Primary mouse oligodendrocyte precursor cells (OPCs); assay: OPC differentiation (in vitro), O4 and MBP staining; format: cell-based; conditions: for OPC differentiation towards oligodendrocytes: nanomolar ranges
Protocol: Primary mouse oligodendrocyte precursor cells (OPCs) were isolated from p0 C57bl6 pups using the shake off method at day 0 (FIG. 1). […] Primary OPCs (150,000 cells/condition) were cultured and stimulated with vehicle (0.1% DMSO) or different concentration of RICE (3 nM, 10 nM, 30 nM, 100 nM, 300 nM, 1000 nM) in 0.1% DMSO. Treatment was repeated on day 2 and day 4, applying a 40% medium change. Cells were fixated at day 6 and stained for O4, a late OPC marker, and MBP, an oligodendrocyte marker. […] The increased expression of O4 declined from 100 nM RICE onwards.

[3] = test system: young adult C57BL/6J-OlaHsd mice; assay: Object location task (OLT), 24h intertrial interval; format: in vivo, mouse
Protocol: Mice received a subcutaneous injection with vehicle (0.1% DMSO in 2% Tween80 and 0.5% methylcellulose), roflumilast 0.03 mg/kg as a positive control, or RICE01 (0.00003 mg/kg-0.3 mg/kg) 3h after the first learning trial of the 24h interval OLT.

[4] = test system: Mouse cerebellar brain slices; assay: Myelination in lysolecithin-demyelinated brain slices (ex vivo); format: cell-based; conditions: 1 μM, 10 days
Protocol: Mouse cerebellar brain slices (350 μm) were made from the cerebellum of p10 C57bl6 pups. After 4 days in culture, slices were demyelinated using 0.5 mg/ml lysolecithin (18 h) and subsequently treated for 10 days with 1 μM RICE (in 0.1% DMSO) (FIG. 2).

SMILES: Oc1cc(-c2ccn(CC(O)CN3CCOCC3)n2)ccc1OC(F)F (stereo not shown) [RICE01]
- visual evoked potential latency [1]: decreased latency times
- MBP expression (oligodendrocyte marker) ([2]; 3-1000 nM, day 6): dose dependently increased
- O4 expression (late OPC marker) ([2]; 3-1000 nM, treatment day 0, 2, 4, fixated day 6): increased with the lower concentrations
- concentration from which the increased expression of O4 declined ([2]; day 6): ≥ 100 nM
- concentration of maximal MBP expression ([2]; day 6): 30 nM
- concentration of maximal O4 expression increase ([2]; day 6): 10 nM
- OPC differentiation towards oligodendrocytes [2]: induces OPC differentiation and myelin production
- OPC differentiation towards oligodendrocytes ([2]; listed as RICE): boosts OPC differentiation towards oligodendrocytes; also recorded: boosted OPC differentiation; also recorded: stimulated the differentiation of oligodendrocytes
- D2 value versus zero (one-sample t-test) ([3]; 0.00003 mg/kg subcutaneous): significantly higher than zero
- D2 value versus zero (one-sample t-test) ([3]; 0.0001 mg/kg subcutaneous): significantly higher than zero
- d2 index compared with vehicle treatment (Dunnett's) ([3]; 0.0001 mg/kg subcutaneous): significantly higher d2 index
- D2 value versus zero (one-sample t-test) ([3]; 0.0003 mg/kg subcutaneous): significantly higher than zero
- D2 value versus zero (one-sample t-test) ([3]; 0.001 mg/kg subcutaneous): significantly higher than zero
- D2 value versus zero (one-sample t-test) ([3]; 0.01 mg/kg subcutaneous): significantly higher than zero
- D2 value versus zero (one-sample t-test) ([3]; 0.03 mg/kg subcutaneous): significantly higher than zero
- D2 value versus zero (one-sample t-test) ([3]; 0.1 mg/kg subcutaneous): significantly higher than zero
- d2 index compared with vehicle treatment (Dunnett's) ([3]; 0.1 mg/kg subcutaneous): significantly higher d2 index
- discrimination index (D2) in the object location task ([3]; subcutaneous, 0.00003 mg/kg-0.3 mg/kg, 3h after first learning trial): increases
- (re)myelination (myelination index / MBP expression) [4]: improved (re)myelination

Reference: patent publication US20240279183A1, “COMPOUNDS AND PHARMACEUTICAL COMPOSITIONS FOR USE IN NEURODEGENERATIVE DISORDERS” (Universiteit Hasselt, priority 2021, published 2024)
